Experimental data reported in patent US20100119599A1 (ARCHER PHARMACEUTICALS, INC., priority 2006, published 2010).
Counter-ions that a name gives are not always drawn. Like-named read-outs stand apart in the source and are kept apart here.

How the values were obtained:
[1] = tested on: Aβ1-40; test: Measurement of Aβ1-40 in culture medium of 7W WT APP751 CHO cells by ELISA; assay type: cell-based, Chinese hamster; conditions: for Aβ1-40 (% of control): CHO cells that overexpress APP751, zero = below the detection limit of the assay; for activity at 5 µM: Cricetulus griseus, 5 μM test compound, CHO cells stably transfected with human APP751, culture medium, ELISA, control DMSO;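 on all read-outs here: 5 µM test compound but RI-coded compounds at 10 µM for 24 hours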
Procedure: (§1) Chinese hamster ovary (CHO) cells, stably transfected with human APP751 (7W WT APP751 CHO cells) were used. See, e.g., Koo and Squazzo, J. Biol. Chem., 269(26): 17386-17389, 1994. The cells were maintained in DMEM medium supplemented with 10% fetal bovine serum and 1× mixture of penicillin/streptomycin/fungizone/glutamine mixture (Cambrex, Md.) geneticin as selecting agent in 75 cm^2 cell culture flasks. The 7W WT APP751 CHO cells were plated in 96-well cell culture plates in quadruplicate, containing 200 microliters of culture medium, for 18 hours at 37° C. and 5% CO2. All test compounds were placed in dimethyl sulfoxide (DMSO) before being added to the cultured confluent 7W WT APP751 CHO cells to a concentration of the test compound of 5 μM. The culture medium was collected and diluted before being assayed by ELISAs for Aβ1-40 at 10-fold dilution and Aβ1-42 at 2-fold dilution, respectively. Concentrations of Aβ1-40 and Aβ1-42, expressed in pg/ml, were determined using commercially available ELISAs (Biosource, Calif.) in a colorimetric assay using labeled antibodies detected spectrophotometrically. For compounds with an identification beginning “RI”, the compounds were tested at a concentration of 10 μM for 24 hours. Control cells were treated with DMSO containing no compound. The percentage reduction in levels of Aβ1-40 and Aβ1-42 as compared to control cells not exposed to the test compounds are reported for the compounds in Tables 1, 2, and 3, supra. An entry of “0” indicates no detectable amount of Aβ1-40 or Aβ1-42 according to the assay conditions. The data in Tables 1, 2, and 3 may be rounded to the nearest 0.1%.

[2] = tested on: Aβ1-42; test: Measurement of Aβ1-42 in culture medium of 7W WT APP751 CHO cells by ELISA; assay type: cell-based, Chinese hamster; conditions: for Aβ1-42 (% of control): CHO cells that overexpress APP751, zero = below the detection limit of the assay; for activity at 5 µM: Cricetulus griseus, 5 μM test compound, CHO cells stably transfected with human APP751, culture medium, ELISA, control DMSO;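 on Aβ1-42 (% of control): 5 µM test compound but RI-coded compounds at 10 µM for 24 hours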
Procedure: as §1

[3] = Table 3, read-out: Aβ-42 (% of control)
[4] = Table 1, 0 = no detectable amount
[5] = Table 1, 0 = no detectable amount, read-out: Aβ1-42 (% of control)

COC(=O)C1=CN(C2CC2)C=C(C(=O)OC)C1c1cc2c(cc1Cl)OCO2 [ST051458, methyl 4-(6-chloro(2H-benzo[d]1,3-dioxolan-5-yl))-1-cyclopropyl-5-(methoxycarbonyl)-1,4-dihydropyridine-3-carboxylate]
Aβ1-40 (% of control) [1]: 77.81 % of control | Aβ1-42 (% of control) [2]: 59.9 % of control

CCOC(=O)C1=C(C)NC(C)=C(C(=O)OCC)C1C(=O)O [ST007544, 3,5-bis(ethoxycarbonyl)-2,6-dimethyl-1,4-dihydropyridine-4-carboxylic acid]
activity at 5 µM ([1]; Table 3): 78.7% | activity at 5 µM [2, 3]: 80.1%

CC1=C(C(=O)Nc2ccccc2)C(c2cccs2)C(C#N)=C(SCC(=O)NCCc2ccc(Br)cc2)N1 (stereo not shown) [RI_19]
Aβ1-40 (% of control) [1]: 35.4 % of control | Aβ1-42 (% of control) [2]: 44.4 % of control

N#CC(C#N)=CC=C1C=CN(Cc2ccccc2)C=C1 [ST208051, {2-[1-benzyl-4-hydropyridylidene]ethylidene}methane-11-dicarbonitrile]
activity at 5 µM ([1]; Table 3): 57.1% | activity at 5 µM [2, 3]: 75%

CCc1cccc(NC(=O)CSC2=C(C#N)C(c3cc4ccccc4s3)C(C(=O)Nc3ccccc3)=C(C)N2)c1 (stereo not shown) [RI_87]
Aβ1-40 (% of control) [1]: 77.1 % of control | Aβ1-42 (% of control) [2]: 49 % of control

COc1cc(/C=c2\sc3n(c2=O)C(N)=C(C#N)C(c2cc(OC)c(OC)c(OC)c2)C=3C#N)cc(OC)c1OC (stereo not shown) [ST025031, 5-amino-3-oxo-7-(3,4,5-trimethoxyphenyl)-2-[(3,4,5-trimethoxyphenyl)methylene]-4,7-dihydro-1,3-thiazolidino[3,2-a]pyridine-6,8-dicarbonitrile]
Aβ1-40 (% of control) [1]: 55.17 % of control | Aβ1-42 (% of control) [2]: 77.59 % of control

CCOc1cc(C2C(C(=O)OCC(C)C)=C(C)NC3=C2C(=O)CC(c2ccc(Cl)cc2)C3)ccc1O (stereo not shown) [ST017117, 2-methylpropyl 7-(4-chlorophenyl)-4-(3-ethoxy-4-hydroxyphenyl)-2-methyl-5-oxo-1,4,6,7,8-pentahydroquinoline-3-carboxylate]
activity at 5 µM [1, 4]: 25.7% | activity at 5 µM [2, 5]: 81.7%

CC1=C(C(=O)Nc2ccccc2)C(c2ccsc2)C(C#N)=C(S)N1 (stereo not shown) [RI_29]
Aβ1-40 (% of control) [1]: 79.7 % of control | Aβ1-42 (% of control) [2]: 100 % of control

CC1=C(C(=O)Nc2ccccc2)C(c2ccncc2)C(C#N)=C(S)N1 (stereo not shown) [ST007526, (5-cyano-2-methyl-4-(4-pyridyl)-6-sulfanyl(3-1,4-dihydropyridyl))-N-benzamide, 4-methylmorpholine salt]
Aβ1-40 (% of control) [1]: 72.5 % of control | Aβ1-42 (% of control) [2]: 81.23 % of control

COC(=O)C1=C(C)NC2=C(C(=O)CC(c3ccc(Cl)cc3)C2)C1c1ccc(C)cc1 (stereo not shown) [ST015214, methyl 7-(4-chlorophenyl)-2-methyl-4-(4-methylphenyl)-5-oxo-1,4,6,7,8-pentahydroquinoline-3-carboxylate]
activity at 5 µM [1, 4]: 60.7% | activity at 5 µM [2, 5]: 66.7%

CC1=C(C(=O)OC(C)(C)C)C(c2ccc(Cl)cc2)C(C#N)=C(SCC(=O)Nc2cccc(C)c2C)N1 (stereo not shown) [ST050424, tert-butyl 6-{[N-(2,3-dimethylphenyl)carbamoyl]methylthio}-4-(4-chlorophenyl)-5-cyano-2-methyl-1,4-dihydropyridine-3-carboxylate]
Aβ1-40 (% of control) [1]: 41.21 % of control | Aβ1-42 (% of control) [2]: 52.29 % of control

CC1=C(C(=O)Nc2ccccc2)C(c2cccs2)C(C#N)=C(SCC(=O)Nc2ccc(C)cc2)N1 (stereo not shown) [RI_50]
Aβ1-40 (% of control) [1]: 55.2 % of control | Aβ1-42 (% of control) [2]: 38.2 % of control

CC1=C(C(=O)OC2CCCCC2)C(c2cccc3ccccc23)C2=C(CCCC2=O)N1 (stereo not shown) [ST013258, cyclohexyl 2-methyl-4-naphthyl-5-oxo-1,4,6,7,8-pentahydroquinoline-3-carboxylate]
activity at 5 µM [1, 4]: 0% | activity at 5 µM [2, 5]: 47%

CCOc1ccc(NC(=O)CSC2=C(C#N)C(c3cccs3)C(C(=O)Nc3ccccc3)=C(C)N2)cc1 (stereo not shown) [RI_9]
Aβ1-40 (% of control) [1]: 56.3 % of control | Aβ1-42 (% of control) [2]: 27.6 % of control
